Reference: ChEMBL document CHEMBL5252609, “Design, synthesis, and antitumor evaluation of morpholine substituted bisnaphthalimides as DNA targeting agents” (Bioorg Med Chem Lett, 2023)
The source made the active and inactive calls. The rule behind the calls is not given here.

Columns and labels:
T-24 = test: Antiproliferative activity against human T24 cells assessed as cell growth inhibition by MTT assay; type: functional, cell-based
MGC-803 [1] = test: Antiproliferative activity against human MGC-803 cells assessed as cell growth inhibition by MTT assay; type: functional, cell-based
CNE-2 [2] = test: Antiproliferative activity against human CNE-2 cells assessed as cell growth inhibition by MTT assay; type: functional, cell-based
MGC-803 [3] = test: Antitumor activity against human MGC-803 cells xenografted in nude mouse assessed as reduction in tumor volume growth rate at 4 mg/kg, ip administrated every other day for 21 days relative to control; type: functional; parameters: scale not given: the % may be the effect or the level left; conditions: time 21 day
MGC-803 [4] = test: Antitumor activity against human MGC-803 cells xenografted in nude mouse assessed as reduction in tumor volume growth rate at 8 mg/kg, ip administrated every other day for 21 days relative to control; type: functional; parameters: scale not given: the % may be the effect or the level left; conditions: time 21 day
MGC-803 [5] = test: Antitumor activity against human MGC-803 cells xenografted in nude mouse assessed as reduction in tumor weight at 4 mg/kg, ip administrated every other day for 21 days relative to control; type: functional; parameters: scale not given: the % may be the effect or the level left; conditions: time 21 day
Homo sapiens = species on record: Homo sapiens; test: Binding affinity to pBR322 DNA (unknown origin) assessed as induced retardation of DNA migration at 20 to 100 uM by gel electrophoresis assay; conditions: dose 20-100 µM
[6] = molecular target: T1, DNA topoisomerase 1 (Homo sapiens) (UniProt P11387); test: Inhibition of human DNA topoisomerase 1 assessed as reduction in pBR322 DNA relaxation at 10 to 20 uM by gel electrophoresis method; conditions: dose 10-20 µM
T1 sequence (whole entry): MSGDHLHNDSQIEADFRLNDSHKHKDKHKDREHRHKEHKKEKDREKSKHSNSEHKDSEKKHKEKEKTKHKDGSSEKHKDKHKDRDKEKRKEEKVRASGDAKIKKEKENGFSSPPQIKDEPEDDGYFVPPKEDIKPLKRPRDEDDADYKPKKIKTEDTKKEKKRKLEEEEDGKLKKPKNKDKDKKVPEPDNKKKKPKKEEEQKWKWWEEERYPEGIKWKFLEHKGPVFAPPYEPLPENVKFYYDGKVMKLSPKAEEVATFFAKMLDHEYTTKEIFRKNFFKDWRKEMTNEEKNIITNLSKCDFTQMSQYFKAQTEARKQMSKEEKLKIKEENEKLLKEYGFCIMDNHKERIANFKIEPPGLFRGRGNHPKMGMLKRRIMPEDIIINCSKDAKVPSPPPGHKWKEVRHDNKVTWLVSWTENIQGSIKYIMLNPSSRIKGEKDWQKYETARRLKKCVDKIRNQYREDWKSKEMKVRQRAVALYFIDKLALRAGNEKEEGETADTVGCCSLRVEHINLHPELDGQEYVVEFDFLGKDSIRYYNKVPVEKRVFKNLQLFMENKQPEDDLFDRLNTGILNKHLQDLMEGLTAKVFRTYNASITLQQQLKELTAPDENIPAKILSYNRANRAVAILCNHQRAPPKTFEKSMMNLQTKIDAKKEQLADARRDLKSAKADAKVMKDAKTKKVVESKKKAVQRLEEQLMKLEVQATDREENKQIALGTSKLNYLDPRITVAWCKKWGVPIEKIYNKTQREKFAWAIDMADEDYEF

CNE-2 [7] = test: Induction of cell cycle arrest in human CNE-2 cells assessed as accumulation of cells at G1 phase at 0.5 uM measured after 48 hrs by flow cytometry analysis (Rvb= 73.18%); type: functional
CNE-2 [8] = test: Induction of cell cycle arrest in human CNE-2 cells assessed as accumulation of cells at S phase at 0.5 uM measured after 48 hrs by flow cytometry analysis (Rvb= 19.83%); type: functional
CNE-2 [9] = test: Induction of cell cycle arrest in human CNE-2 cells assessed as accumulation of cells at G2 phase at 1 uM measured after 48 hrs by flow cytometry analysis (Rvb= 6.99%); type: functional
CNE-2 [10] = test: Induction of cell cycle arrest in human CNE-2 cells assessed as accumulation of cells at G2 phase at 2 uM measured after 48 hrs by flow cytometry analysis (Rvb= 6.99%); type: functional
CNE-2 [11] = test: Induction of cell cycle arrest in human CNE-2 cells assessed as accumulation of cells at S phase at 2 uM measured after 48 hrs by flow cytometry analysis (Rvb= 19.83%); type: functional
CNE-2 [12] = test: Downregulation of CDK2 level in human CNE-2 cells measured after 48 hrs by Western blot analysis; type: functional, cell-based; conditions: dose <= 2.0 µM
CNE-2 [13] = test: Downregulation of cyclin E level in human CNE-2 cells measured after 48 hrs by Western blot analysis; type: functional, cell-based; conditions: dose <= 2.0 µM
CNE-2 [14] = test: Downregulation of cyclin B level in human CNE-2 cells measured after 48 hrs by Western blot analysis; type: functional, cell-based; conditions: dose <= 2.0 µM
CNE-2 [15] = test: Upregulation of p27 level in human CNE-2 cells measured after 48 hrs by Western blot analysis; type: functional, cell-based; conditions: dose <= 2.0 µM
CNE-2 [16] = test: Induction of apoptosis in human CNE-2 cells assessed as early apoptotic cells at 0.5 uM measured after 24 hrs by annexin-V-FITC and PI staining based flow cytometry analysis (reference value: 0.439%); type: functional
CNE-2 [17] = test: Induction of apoptosis in human CNE-2 cells assessed as late apoptotic cells at 0.5 uM measured after 24 hrs by annexin-V-FITC and PI staining based flow cytometry analysis (reference value: 3.79%); type: functional
CNE-2 [18] = test: Induction of apoptosis in human CNE-2 cells assessed as necrotic cells at 0.5 uM measured after 24 hrs by annexin-V-FITC and PI staining based flow cytometry analysis (reference value: 0.959%); type: functional
CNE-2 [19] = test: Induction of apoptosis in human CNE-2 cells assessed as viable cells at 1 uM measured after 24 hrs by annexin-V-FITC and PI staining based flow cytometry analysis (reference value: 94.8%); type: functional; conditions: read-out: Activity
CNE-2 [20] = test: Induction of apoptosis in human CNE-2 cells assessed as early apoptotic cells at 1 uM measured after 24 hrs by annexin-V-FITC and PI staining based flow cytometry analysis (reference value: 0.439%); type: functional
CNE-2 [21] = test: Induction of apoptosis in human CNE-2 cells assessed as late apoptotic cells at 1 uM measured after 24 hrs by annexin-V-FITC and PI staining based flow cytometry analysis (reference value: 3.79%); type: functional
CNE-2 [22] = test: Induction of apoptosis in human CNE-2 cells assessed as necrotic cells at 1 uM measured after 24 hrs by annexin-V-FITC and PI staining based flow cytometry analysis (reference value: 0.959%); type: functional
CNE-2 [23] = test: Induction of apoptosis in human CNE-2 cells assessed as viable cells at 2 uM measured after 24 hrs by annexin-V-FITC and PI staining based flow cytometry analysis (reference value: 94.8%); type: functional; conditions: read-out: Activity
CNE-2 [24] = test: Induction of apoptosis in human CNE-2 cells assessed as early apoptotic cells at 2 uM measured after 24 hrs by annexin-V-FITC and PI staining based flow cytometry analysis (reference value: 0.439%); type: functional
CNE-2 [25] = test: Induction of apoptosis in human CNE-2 cells assessed as necrotic cells at 2 uM measured after 24 hrs by annexin-V-FITC and PI staining based flow cytometry analysis (reference value: 0.959%); type: functional
CNE-2 [26] = test: Induction of apoptosis in human CNE-2 cells at 0.5 to 2 uM by Hoechst 33258 staining based fluorescence microscopic analysis; type: functional, cell-based; conditions: dose 0.5-2 µM
CNE-2 [27] = test: Induction of ROS generation in human CNE-2 cells at 0.5 to 2 uM incubated for 24 hrs by DCFH2-DA probe based analysis; type: functional, cell-based; conditions: dose 0.5-2 µM

IC50 (MGC-803 [1]) | Activity (Homo sapiens) | inhibition [6] | SMILES | IC50 (T-24) | IC50 (CNE-2 [2]) | Activity (MGC-803 [3]) | Activity (MGC-803 [4]) | Activity (MGC-803 [5]) | Activity (CNE-2 [7]) | Activity (CNE-2 [8]) | Activity (CNE-2 [9]) | Activity (CNE-2 [10]) | Activity (CNE-2 [11]) | Activity (CNE-2 [12]) | Activity (CNE-2 [13]) | Activity (CNE-2 [14]) | Activity (CNE-2 [15]) | Activity (CNE-2 [16]) | Activity (CNE-2 [17]) | Activity (CNE-2 [18]) | also measured
1560 nM | Active | Active | CN(C)CCN1C(=O)c2cccc3c(N4CCOCC4)c([N+](=O)[O-])cc(c23)C1=O | 1540 nM | 1480 nM | 59.9% | 56.1% | 34.4% | 72.47% | 20.05% | 12.63% | 25.48% | 35.62% | Dose-Dependent Effect | Dose-Dependent Effect | Dose-Dependent Effect | Dose-Dependent Effect | 5.68% | 8.17% | 2.12% | viability at 1 µM (CNE-2 [19]): 82.9%; Activity (CNE-2 [20]): 3.01%; Activity (CNE-2 [21]): 8.53%; Activity (CNE-2 [22]): 5.56%; viability at 2 µM (CNE-2 [23]): 71.9%; Activity (CNE-2 [24]): 17%; Activity (CNE-2 [25]): 1.91%; Activity (CNE-2 [26]): Active; Activity (CNE-2 [27]): Active
90 nM | Active | Active | O=C1c2cccc3c(N4CCOCC4)c([N+](=O)[O-])cc(c23)C(=O)N1CCNCCN1C(=O)c2cccc3c(N4CCOCC4)c([N+](=O)[O-])cc(c23)C1=O | 1240 nM | 410 nM | 49.7% | 46% | 44.7% | 66.68% | 31.78% | 2.69% | 11.96% | 49.01% | Dose-Dependent Effect | Dose-Dependent Effect | Dose-Dependent Effect | Dose-Dependent Effect | 3.7% | 6.61% | 7.04% | viability at 1 µM (CNE-2 [19]): 83.4%; Activity (CNE-2 [20]): 2.19%; Activity (CNE-2 [21]): 7.06%; Activity (CNE-2 [22]): 7.3%; viability at 2 µM (CNE-2 [23]): 70.1%; Activity (CNE-2 [24]): 2.62%; Activity (CNE-2 [25]): 13.9%; Activity (CNE-2 [26]): Active; Activity (CNE-2 [27]): Active
